Measurements taken from the supplement of paper PMC10307832.

compound: COc1cc(Nc2ncc(F)c(Nc3ccc4c(n3)NC(=O)C(C)(C)O4)n2)cc(OC)c1OC [R406] + CC(C)C[C@H](NC(=O)[C@H](Cc1ccccc1)NC(=O)c1cnccn1)B(O)O [Bortezomib] (partner 0.002 µM); assay: relative viability (nuclei count vs DMSO), 5 days (fraction); higher = more cells survive; conditions: first compound 0.08 µM
Outline: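 Dosing by pin tool came one day after lung cancer cell lines were seeded in 1536-well plates, using either one drug or a fixed anchor-drug dose plus five library-drug doses (not always all listed) in √10 steps. After 5 days, nuclei were counted on 4× images. Relative viability is treated-well nuclei count divided by vehicle-well nuclei count, and values are medians of duplicate plates.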

Cell Line | relative viability
NCI-H2126 | 1.05
EMC-BAC-2 | 1.04
NCI-H2085 | 0.996
HCC-366 | 1.08
NCI-H1666 | 0.803
NCI-H647 | 0.89
NCI-H2087 | 0.815
H3255 | 0.852
COR-L23 | 0.942
COR-L 105 | 0.68
LOU-NH91 | 0.427
ChaGo-K-1 | 1.02
NCI-H2405 | 1.01
HOP-62 | 0.835
HCC-44 | 0.927
LU99A | 1.07
BEN | 0.685
HARA | 1.07
HCC-78 | 0.491
NCI-H322M | 1.19
LCLC-97TM1 | 0.718
NCI-H2009 | 0.983
A-427 | 0.948

same assay, conditions: first compound 0.253 µM

Cell Line | relative viability
NCI-H1993 | 1.12
NCI-H441 | 0.383
PC-14 | 0.957
LCLC-103H | 1.29
NCI-H596 | 1.28
NCI-H2126 | 1.13
EMC-BAC-2 | 1.13
NCI-H2085 | 1.14
HCC-366 | 1.02
NCI-H1666 | 1.03
NCI-H647 | 1.02
NCI-H2087 | 1.02
H3255 | 0.912
COR-L23 | 1.14
COR-L 105 | 0.84
LOU-NH91 | 0.4
ChaGo-K-1 | 1.06
NCI-H2405 | 1.11
HOP-62 | 0.656
HCC-44 | 1.07
LU99A | 0.968
BEN | 1.03
HARA | 1.21
HCC-78 | 0.541
NCI-H322M | 0.994
LCLC-97TM1 | 0.659
NCI-H2009 | 1.11
A-427 | 1.01

same assay, conditions: first compound 0.8 µM

Cell Line | relative viability
NCI-H1993 | 1.11
NCI-H441 | 0.713
PC-14 | 0.909
LCLC-103H | 1.08
NCI-H596 | 0.758
NCI-H2126 | 1.24
EMC-BAC-2 | 1.12
NCI-H2085 | 1.1
HCC-366 | 1.3
NCI-H1666 | 0.853
NCI-H647 | 1.59
NCI-H2087 | 0.847
H3255 | 0.686
COR-L23 | 1.06
COR-L 105 | 1.06
LOU-NH91 | 0.469
ChaGo-K-1 | 1.11
NCI-H2405 | 1.05
HOP-62 | 0.559
HCC-44 | 1
LU99A | 1.26
BEN | 1.02
HARA | 1.15
HCC-78 | 0.51
NCI-H322M | 1.19
LCLC-97TM1 | 0.793
NCI-H2009 | 1.24
A-427 | 1.03

same assay, conditions: first compound 2.53 µM

Cell Line | relative viability
NCI-H1993 | 0.544
PC-14 | 0.604
LCLC-103H | 0.781
NCI-H596 | 0.984
NCI-H2126 | 1.03
EMC-BAC-2 | 1.04
NCI-H2085 | 0.708
NCI-H1666 | 0.336
NCI-H647 | 0.0846
NCI-H2087 | 0.428
H3255 | 0.865
COR-L23 | 0.907
COR-L 105 | 0.315
LOU-NH91 | 0.496
ChaGo-K-1 | 0.823
NCI-H2405 | 0.941
HOP-62 | 1.02
HCC-44 | 0.312
BEN | 0.88
HARA | 0.991
HCC-78 | 0.306
NCI-H322M | 0.534
LCLC-97TM1 | 0.489
NCI-H2009 | 0.427
A-427 | 0.526

same assay, conditions: first compound 8 µM

Cell Line | relative viability
NCI-H1993 | 0.6
NCI-H441 | 0.331
PC-14 | 0.704
LCLC-103H | 0.9
NCI-H596 | 0.475
NCI-H2126 | 1.04
EMC-BAC-2 | 0.844
NCI-H2085 | 0.775
HCC-366 | 0.428
NCI-H1666 | 0.617
NCI-H647 | 0.188
NCI-H2087 | 0.751
H3255 | 0.457
COR-L23 | 0.523
COR-L 105 | 0.246
LOU-NH91 | 0.471
ChaGo-K-1 | 0.347
NCI-H2405 | 0.845
HOP-62 | 0.82
HCC-44 | 0.603
LU99A | 0.512
BEN | 0.553
HARA | 0.389
HCC-78 | 0.241
NCI-H322M | 0.803
LCLC-97TM1 | 0.207
NCI-H2009 | 0.27
A-427 | 0.74
